Assay results from PMC6272176, “Antileishmanial and Cytotoxic Compounds from Valeriana wallichii and Identification of a Novel Nepetolactone Derivative” (Molecules, 2015).
Where two headings read alike, the source gives them in different places.

Experiments:
[1] = system: L. major promastigotes; experiment: Antileishmanial activity against L. major promastigotes, AlamarBlue assay; format: cell-based, Leishmania major; settings: for antileishmanial activity (in words): verbal rating; for IC50: Leishmania major, read-out: IC50 (L. major)
Experimental: (§1) All compounds isolated were subjected to the evaluation of their antileishmanial activity against L. major promastigotes in vitro and cytotoxicity against macrophages (J774.1 murine cell line) using the corresponding AlamarBlue^© assays (cf. Table 2).
(§2) Antileishmanial activity against L. major promastigotes and cytotoxicity against a murine macrophage cell line (J774.1) was determined using an AlamarBlue^© assay. Methods for both procedures have been reported previously. IC50 values are presented as mean values of two experiments.

[2] = system: J774.1 murine macrophage cell line; experiment: Cytotoxicity against macrophages (J774.1), AlamarBlue assay; format: cell-based; settings: for IC50: Mus musculus; for cytotoxicity (in words): verbal rating
Experimental: as §1, §2

[3] = L. major promastigotes in vitro
[4] = L. major promastigotes in vitro, values marked *: pure or synthesized compounds, given in µM, mean of two experiments
[5] = J774.1 macrophages, values marked *: pure or synthesized compounds, given in µM, mean of two experiments, read-out: IC50 (J774.1)
[6] = L. major promastigotes in vitro, fractions containing isolated compounds, mean of two experiments
[7] = J774.1 macrophages, fractions containing isolated compounds, mean of two experiments, read-out: IC50 (J774.1)
[8] = J774.1 macrophages, fractions containing isolated compounds, mean of two experiments

Row | Compound | IC50 [1, 6] | antileishmanial activity (in words) [1, 3] | IC50 [2, 7] | also measured
1 | CC1(C)C2CCC1(C)C(OC(=O)C=Cc1ccc(O)c(O)c1)C2 (stereo not drawn) [Bornyl caffeate (1), bornyl caffeate] | – | moderate antileishmanial activity | – | IC50 [1, 4]: 48.8 µM; IC50 [2, 5]: 8.3 µM
2 | CC(C)CC(=O)OC1CC2CCC1(C)C2(C)C (stereo not drawn) [Bornyl isovalerate (13), bornyl isovalerate] | – | no antileishmanial activity | – | IC50 [1, 4]: > 100 µM; IC50 [2, 5]: > 100 µM
3 | CCCCCCCCCCCCCCCCOP(=O)([O-])OCC[N+](C)(C)C [Miltefosine, reference compound] | – | – | – | IC50 [2, 5]: 56.5 µM
4 | CC1CCC2(OC3OC(CO)C(O)C(O)C3O)C1C(=O)OC2(C)COC(=O)C=Cc1ccc(O)cc1 [compound 4, {[(3S,4S,7R,8S)-1-Oxo-3,7-dimethyl-4-(O-β-D-glucopyranosyl)oxy]hexahydrocyclopenta[c]furan-3-yl}-methyl-trans-4-hydroxycinnamate] | > 100 µg/mL | – | > 100 µg/mL | –
5 | C[C@@H]1CC[C@H]2[C@H](CO)COC(=O)[C@H]21 [compound 5, (4R,5S,8R,9S)-4-(Hydroxymethyl)-8-methylhexahydro-cyclopenta[c]pyranone] | > 100 µg/mL | – | 17.5 µg/mL | –
6 | CCC(C)CC(=O)OC1OC=C(COC(=O)CC(C)C)C2CC(OC(C)=O)C(O)(COC(=O)C(OC(=O)CC(C)C)C(C)C)C12 (stereo not drawn) [compound 6] | 1.9 µg/mL | – | < 0.8 µg/mL | –
7 | CC(=O)OCC1=COC(OC(=O)CC(C)C)C2C1=CC(OC(=O)CC(C)C)C2(O)COC(=O)CC(C)C (stereo not drawn) [compound 8] | – | – | – | IC50 [1, 4]: 1.7 µM; IC50 [2, 5]: 1 µM
8 | CC(=O)OC1CC2C(COC(=O)CC(C)C)=COC(OC(=O)CC(C)C)C2C1(O)CCl (stereo not drawn) [compound 9, valechlorine] | 2.3 µg/mL | – | 1.9 µg/mL | –
9 | COc1cc(C2c3cc4c(cc3C(O)C3COC(=O)C23)OCO4)cc(OC)c1O (stereo not drawn) [compound 15, 4'-demethylpodophyllotoxin] | – | no antileishmanial activity | – | IC50 (L. major) [1, 6]: >100 µg/mL; IC50 (J774.1) [2, 8]: <0.8 µg/mL
10 | COc1cc([C@@H]2c3cc4c(cc3[C@H](O)[C@H]3COC(=O)[C@H]23)OCO4)cc(OC)c1OC [compound 16, podophyllotoxin] | – | no antileishmanial activity | – | IC50 [1]: > 100 µg/mL; IC50 ([2]; J774.1, read-out: IC50 (J774.1)): < 0.8 µg/mL
11 | CC1CC(O)C2C1CC1CCC2(C)OC1(C)C (stereo not drawn) [α-Kessyl alcohol (11), α-kessyl alcohol] | 5.8 µg/mL | rather good antileishmanial activity | 1.7 µg/mL | –
12 | pinoresinol [Pinoresinol (17)] | – | no antileishmanial activity | – | IC50 (L. major) [1, 6]: >100 µg/mL; IC50 (J774.1) [2, 8]: <0.8 µg/mL

The next lines start with results.

Row | IC50 [1, 6] | Compound | antileishmanial activity (in words) [1, 3] | IC50 [2, 7] | also measured
13 | 60.8 µg/mL | CC(C)C1CCC2(C)CCCC(=O)C2(C)C1 (stereo not drawn) [Valeranone (12), valeranone] | moderate | 42.6 µg/mL | cytotoxicity (in words) ([2]; J774.1 macrophages): moderate
14 | 16.7 µg/mL | COc1ccc(C=CC(=O)OC2CC3CCC2(C)C3(C)C)cc1O (stereo not drawn) [compound 2, bornyl isoferulate] | moderate antileishmanial activity | 34.7 µg/mL | –
15 | 0.8 µg/mL | CC(=O)OC1CC2C(COC(=O)CC(C)C)=COC(OC(=O)CC(C)C)C2C1(O)COC(=O)CC(C)C (stereo not drawn) [compound 7] | – | < 0.8 µg/mL | –
16 | 52.2 µg/mL | CC(C)=CCCC(C)C1(O)CC=C(C)CC1 (stereo not drawn) [β-Bisabolol (10), β-bisabolol] | moderate | 37.1 µg/mL | cytotoxicity (in words) ([2]; J774.1 macrophages): moderate
